In PMC7979765, “trans-Translation inhibitors bind to a novel site on the ribosome and clear Neisseria gonorrhoeae in vivo” (Nature Communications, 2021):
Several values for one entry are separate records, joined by “and”; a condition that tells them apart may be missing. Equal entries are not always repeated. Where two headings read alike, the source gives them in different places.

Experiments:
Type in all cases: cell-based
[1] = tested on: Neisseria gonorrhoeae; experiment: MIC, microbroth dilution, G77L medium
[2] = tested on: Escherichia coli; experiment: microbe, parasite or virus in culture
[3] = tested on: Staphylococcus aureus; experiment: MIC, microbroth dilution

O=C(Nc1nnc(-c2ccc(F)cc2)o1)c1ccc(Cl)cc1 [KKL-35, 4-chloro-N-(5-(4-fluorophenyl)-1,3,4-oxadiazol-2-yl)benzamide]
0.06 µg/mL: MIC ([1]; Neisseria gonorrhoeae, ATCC700825, strain ATCC 700825, STR, read-out: MIC) | MIC ([1]; Neisseria gonorrhoeae, BAA1846, strain BAA-1846, TET, read-out: MIC) | MIC ([1]; Neisseria gonorrhoeae, strain MMX 6753, by Micromyx, read-out: MIC) | MIC ([1]; Neisseria gonorrhoeae, strain MMX 6753, single data point, Micromyx, read-out: MIC) | MIC ([1]; Neisseria gonorrhoeae, strain MMX 6757, by Micromyx, read-out: MIC) | MIC ([1]; Neisseria gonorrhoeae, strain MMX 6757, single data point, Micromyx, read-out: MIC) | MIC ([1]; Neisseria gonorrhoeae, strain MMX 6767, by Micromyx, read-out: MIC) | MIC ([1]; Neisseria gonorrhoeae, strain MMX 6767, single data point, Micromyx, read-out: MIC) | MIC ([1]; Neisseria gonorrhoeae, strain MMX 6771, TET, by Micromyx, read-out: MIC) | MIC ([1]; Neisseria gonorrhoeae, strain MMX 6771, single data point, Micromyx, read-out: MIC) | MIC ([1]; Neisseria gonorrhoeae, strain MMX 6793, CIP, by Micromyx, read-out: MIC) | MIC ([1]; Neisseria gonorrhoeae, strain MMX 6793, single data point, Micromyx, read-out: MIC) | MIC ([1]; Neisseria gonorrhoeae, strain MMX 6797, CIP, TET, by Micromyx, read-out: MIC) | MIC ([1]; Neisseria gonorrhoeae, strain MMX 6797, single data point, Micromyx, read-out: MIC) | MIC ([1]; Neisseria gonorrhoeae, strain MMX 6879, by Micromyx, read-out: MIC) | MIC ([1]; Neisseria gonorrhoeae, strain MMX 6879, single data point, Micromyx, read-out: MIC) | MIC ([1]; Neisseria gonorrhoeae, strain MMX 6990, CIP, by Micromyx, read-out: MIC) | MIC ([1]; Neisseria gonorrhoeae, strain MMX 6990, single data point, Micromyx, read-out: MIC)
0.496 µg/mL: MIC ([2]; Escherichia coli, E. coli KLE701 (ΔtolC::tet), source data, individual replicates)
0.9 µg/mL: MIC ([3]; Staphylococcus aureus, MRSA, strain THC1516, MRSA, read-out: MIC)
0.12 µg/mL: MIC ([1]; Neisseria gonorrhoeae, ATCC49226, strain ATCC 49226, type strain, read-out: MIC) | MIC ([1]; Neisseria gonorrhoeae, strain H041, Fig. 1B, read-out: N. gonorrhoeae H041 MIC)
0.50 µg/mL: MIC ([2]; Escherichia coli KLE701 (ΔtolC), replicates)
1 µg/mL: MIC ([3]; Staphylococcus aureus ATCC 25923, replicates) | MIC ([3]; Staphylococcus aureus ATCC 35556, replicates) | MIC ([3]; Staphylococcus aureus BAA-1717, replicates) | MIC ([3]; Staphylococcus aureus MRSA-1094, replicates) | MIC ([3]; Staphylococcus aureus MRSA-1234547263, replicates) | MIC ([3]; Staphylococcus aureus MSSA, replicates) | MIC ([3]; Staphylococcus aureus N315, NRS-70, replicates) | MIC ([3]; Staphylococcus aureus NRS-77, replicates) | MIC ([3]; Staphylococcus aureus, ATCC25923, Staphylococcus aureus ATCC 25923, replicates, read-out: MIC) | MIC ([3]; Staphylococcus aureus, ATCC25923, strain ATCC 25923, read-out: MIC) | MIC ([3]; Staphylococcus aureus, ATCC35556, Staphylococcus aureus ATCC 35556, replicates, read-out: MIC) | MIC ([3]; Staphylococcus aureus, ATCC35556, strain ATCC 35556, read-out: MIC) | MIC ([3]; Staphylococcus aureus, BAA1717, Staphylococcus aureus BAA-1717, replicates, read-out: MIC) | MIC ([3]; Staphylococcus aureus, BAA-1717 / MRSA, strain BAA-1717, MRSA, read-out: MIC) | MIC ([3]; Staphylococcus aureus, MRSA / NRS 70, strain N315, NRS-70, MRSA, read-out: MIC) | MIC ([3]; Staphylococcus aureus, MRSA, Staphylococcus aureus MRSA-1094, replicates, read-out: MIC) | MIC ([3]; Staphylococcus aureus, MRSA, Staphylococcus aureus MRSA-1234547263, replicates, read-out: MIC) | MIC ([3]; Staphylococcus aureus, MRSA, strain MRSA-1094, MRSA, read-out: MIC) | MIC ([3]; Staphylococcus aureus, MRSA, strain MRSA-1234547263, MRSA, read-out: MIC) | MIC ([3]; Staphylococcus aureus, MSSA, Staphylococcus aureus MSSA, replicates, read-out: MIC) | MIC ([3]; Staphylococcus aureus, MSSA, strain MSSA, read-out: MIC) | MIC ([3]; Staphylococcus aureus, NRS70, Staphylococcus aureus N315, NRS-70, replicates, read-out: MIC) | MIC ([3]; Staphylococcus aureus, NRS77, Staphylococcus aureus NRS-77, replicates, read-out: MIC) | MIC ([3]; Staphylococcus aureus, NRS77, strain NRS-77, read-out: MIC) | MIC ([3]; Staphylococcus aureus, Staphylococcus aureus THC1516, replicates, read-out: MIC)
0.124 µg/mL: MIC ([1]; Neisseria gonorrhoeae, ATCC49226, Neisseria gonorrhoeae ATCC 49226, source data, individual replicates, read-out: MIC) | MIC ([1]; Neisseria gonorrhoeae, ATCC49226, strain ATCC 49226, geomean of replicates, read-out: MIC GEOMEAN) | MIC ([1]; Neisseria gonorrhoeae, ATCC49226, strain ATCC 49226, replicates 1-3, read-out: MIC) | MIC ([1]; strain ATCC 49226, replicates 1-3)
0.5 µg/mL: MIC ([2]; Escherichia coli, Escherichia coli KLE701 (ΔtolC), replicates) | MIC ([2]; Escherichia coli, strain KLE701, KLE700 ΔtolC::tet)
1 µg/ml (4×) and 0.5 µg/ml: MIC ([3]; Staphylococcus aureus THC1516, replicates)
0.248 µg/mL: MIC ([1]; Neisseria gonorrhoeae, ATCC700719, strain ATCC 700719, geomean of replicates, read-out: MIC GEOMEAN) | MIC ([1]; Neisseria gonorrhoeae, ATCC700719, strain ATCC 700719, replicates 1-3, read-out: MIC) | MIC ([1]; Neisseria gonorrhoeae, strain HO41, geomean of replicates, read-out: MIC GEOMEAN) | MIC ([1]; Neisseria gonorrhoeae, strain HO41, replicates 1-3, read-out: MIC) | MIC ([1]; strain ATCC 700719, replicates 1-3) | MIC ([1]; strain HO41, replicates 1-3)
0.13 µg/mL: MIC ([1]; Neisseria gonorrhoeae, strain MMX 6744, broth dilution by Micromyx, read-out: MIC) | MIC ([1]; Neisseria gonorrhoeae, strain MMX 6744, single data point, Micromyx, read-out: MIC) | MIC ([1]; Neisseria gonorrhoeae, strain MMX 6746, CIP, by Micromyx, read-out: MIC) | MIC ([1]; Neisseria gonorrhoeae, strain MMX 6746, single data point, Micromyx, read-out: MIC) | MIC ([1]; Neisseria gonorrhoeae, strain MMX 6758, by Micromyx, read-out: MIC) | MIC ([1]; Neisseria gonorrhoeae, strain MMX 6758, single data point, Micromyx, read-out: MIC) | MIC ([1]; Neisseria gonorrhoeae, strain MMX 6762, by Micromyx, read-out: MIC) | MIC ([1]; Neisseria gonorrhoeae, strain MMX 6762, single data point, Micromyx, read-out: MIC) | MIC ([1]; Neisseria gonorrhoeae, strain MMX 6803, CIP, by Micromyx, read-out: MIC) | MIC ([1]; Neisseria gonorrhoeae, strain MMX 6803, single data point, Micromyx, read-out: MIC) | MIC ([1]; Neisseria gonorrhoeae, strain MMX 6812, CIP, by Micromyx, read-out: MIC) | MIC ([1]; Neisseria gonorrhoeae, strain MMX 6812, single data point, Micromyx, read-out: MIC) | MIC ([1]; Neisseria gonorrhoeae, strain MMX 6818, CIP, by Micromyx, read-out: MIC) | MIC ([1]; Neisseria gonorrhoeae, strain MMX 6818, single data point, Micromyx, read-out: MIC) | MIC ([1]; Neisseria gonorrhoeae, strain MMX 6819, CIP, by Micromyx, read-out: MIC) | MIC ([1]; Neisseria gonorrhoeae, strain MMX 6819, single data point, Micromyx, read-out: MIC) | MIC ([1]; Neisseria gonorrhoeae, strain MMX 6989, by Micromyx, read-out: MIC) | MIC ([1]; Neisseria gonorrhoeae, strain MMX 6989, single data point, Micromyx, read-out: MIC) | MIC ([1]; Neisseria gonorrhoeae, strain MMX 6992, by Micromyx, read-out: MIC) | MIC ([1]; Neisseria gonorrhoeae, strain MMX 6992, single data point, Micromyx, read-out: MIC) | MIC ([1]; Neisseria gonorrhoeae, strain MMX 6996, by Micromyx, read-out: MIC) | MIC ([1]; Neisseria gonorrhoeae, strain MMX 6996, single data point, Micromyx, read-out: MIC) | MIC ([1]; Neisseria gonorrhoeae, strain MMX 7002, CIP, by Micromyx, read-out: MIC) | MIC ([1]; Neisseria gonorrhoeae, strain MMX 7002, single data point, Micromyx, read-out: MIC)
0.03 µg/mL: MIC ([1]; Neisseria gonorrhoeae, strain MMX 7005, by Micromyx, read-out: MIC) | MIC ([1]; Neisseria gonorrhoeae, strain MMX 7005, single data point, Micromyx, read-out: MIC)
0.062 µg/mL: MIC ([1]; Neisseria gonorrhoeae, ATCC700825, strain ATCC 700825, geomean of replicates, read-out: MIC GEOMEAN) | MIC ([1]; Neisseria gonorrhoeae, ATCC700825, strain ATCC 700825, replicates 1-3, read-out: MIC) | MIC ([1]; Neisseria gonorrhoeae, BAA1846, strain BAA-1846, geomean of replicates, read-out: MIC GEOMEAN) | MIC ([1]; Neisseria gonorrhoeae, BAA1846, strain BAA-1846, replicates 1-3, read-out: MIC) | MIC ([1]; strain ATCC 700825, replicates 1-3) | MIC ([1]; strain BAA-1846, replicates 1-3)
≥ 32 µg/mL: MIC ([2]; Escherichia coli, Escherichia coli KLE700, replicates, read-out: MIC) | MIC ([2]; Escherichia coli, strain KLE700, read-out: MIC)
≥32 µg/mL: MIC ([2]; Escherichia coli KLE700, replicates)
0.25 µg/mL: MIC ([1]; Neisseria gonorrhoeae, ATCC49226, strain MMX ATCC 49226, broth dilution by Micromyx, read-out: MIC) | MIC ([1]; Neisseria gonorrhoeae, ATCC49226, strain MMX ATCC 49226, single data point, Micromyx, read-out: MIC) | MIC ([1]; Neisseria gonorrhoeae, ATCC700719, strain ATCC 700719, SPT, read-out: MIC) | MIC ([1]; Neisseria gonorrhoeae, strain HO41, PEN, TET, CFM, CRO, LVX, read-out: MIC) | MIC ([1]; Neisseria gonorrhoeae, strain MMX 6752, TET, by Micromyx, read-out: MIC) | MIC ([1]; Neisseria gonorrhoeae, strain MMX 6752, single data point, Micromyx, read-out: MIC) | MIC ([1]; Neisseria gonorrhoeae, strain MMX 6921, CIP, by Micromyx, read-out: MIC) | MIC ([1]; Neisseria gonorrhoeae, strain MMX 6921, single data point, Micromyx, read-out: MIC) | MIC ([1]; Neisseria gonorrhoeae, strain MMX 6922, CIP, by Micromyx, read-out: MIC) | MIC ([1]; Neisseria gonorrhoeae, strain MMX 6922, single data point, Micromyx, read-out: MIC) | MIC ([1]; Neisseria gonorrhoeae, strain MMX 6983, CIP, by Micromyx, read-out: MIC) | MIC ([1]; Neisseria gonorrhoeae, strain MMX 6983, single data point, Micromyx, read-out: MIC) | MIC ([1]; Neisseria gonorrhoeae, strain MMX 6998, CIP, by Micromyx, read-out: MIC) | MIC ([1]; Neisseria gonorrhoeae, strain MMX 6998, single data point, Micromyx, read-out: MIC) | MIC90 ([1]; Neisseria gonorrhoeae, Supplementary Table 3, n = 32 (KKL-35), 71 (MBX-4132) strains, read-out: MIC90 (n))
